Source: patent publication US20220088016A1, “CANCER TREATMENT USING MULTI-TARGETED KINASE INHIBITOR IN COMBINATION OF PROTEIN KINASE BIOMARKERS” (ZHEJIANG CROWNMAB BIOTECH CO. LTD., priority 2019, published 2022)

Key:
Assay in all cases: Kinase profiling
Assay type in all cases: binding
Details in all cases: read-out: % Ctrl @ 1000 nM
[1] = target: ABL1 (E255K)-phosphorylated (Homo sapiens, UniProt P00519, E255K)
[2] = target: ABL1 (H396P)-nonphosphorylated (Homo sapiens, UniProt P00519, H396P)
[3] = target: ABL1 (H396P)-phosphorylated (Homo sapiens, UniProt P00519, H396P)
ASK1 = ASK1 (Homo sapiens, UniProt Q99683)
BMPR1B = BMPR1B (Homo sapiens, UniProt O00238)
CDK2 = CDK2 (Homo sapiens, UniProt P24941)
CDK4 = CDK4 (Homo sapiens, UniProt P11802)
CDKL3 = CDKL3 (Homo sapiens, UniProt Q8IVW4)
DYRK1B = DYRK1B (Homo sapiens, UniProt Q9Y463)
EPHA5 = EPHA5 (Homo sapiens, UniProt P54756)
EPHB2 = EPHB2 (Homo sapiens, UniProt P29323)
ERK3 = ERK3 (Homo sapiens, UniProt Q16659)
ERN1 = ERN1 (Homo sapiens, UniProt O75460)
FLT3 (D835Y) = FLT3 (D835Y) (Homo sapiens, UniProt P36888, D835Y)
FLT3 (R834Q) = FLT3 (R834Q) (Homo sapiens, UniProt P36888, R834Q)
GRK4 = GRK4 (Homo sapiens, UniProt P32298)
[4] = target: JAK1 (JH1domain-catalytic) (Homo sapiens, UniProt P23458)
[5] = target: JAK3 (JH1domain-catalytic) (Homo sapiens, UniProt P52333)
JNK3 = JNK3 (Homo sapiens, UniProt P53779)
LRRK2 (G2019S) = LRRK2 (G2019S) (Homo sapiens, UniProt Q5S007, G2019S)
LTK = LTK (Homo sapiens, UniProt P29376)
MAK = MAK (Homo sapiens, UniProt P20794)
MAST1 = target: T1, MAST1 (Homo sapiens, UniProt Q9Y2H9)
T1 construct: T7 phage fusion (stated for most kinases of the panel only); made in house; host or cells: T7 phage in E. coli (BL21-derived) or HEK-293 cells

MEK6 = target: T2, MEK6 (Homo sapiens, UniProt P52564)
T2 construct: T7 phage fusion (stated for most kinases of the panel only); made in house; host or cells: T7 phage in E. coli (BL21-derived) or HEK-293 cells

MELK = target: T3, MELK (Homo sapiens, UniProt Q14680)
T3 construct: T7 phage fusion (stated for most kinases of the panel only); made in house; host or cells: T7 phage in E. coli (BL21-derived) or HEK-293 cells

MET (Y1235D) = target: T4, MET (Y1235D) (Homo sapiens, UniProt P08581, Y1235D)
T4 construct: T7 phage fusion (stated for most kinases of the panel only); made in house; host or cells: T7 phage in E. coli (BL21-derived) or HEK-293 cells

MST1R = target: T5, MST1R (Homo sapiens, UniProt Q04912)
T5 construct: T7 phage fusion (stated for most kinases of the panel only); made in house; host or cells: T7 phage in E. coli (BL21-derived) or HEK-293 cells

NEK11 = target: T6, NEK11 (Homo sapiens, UniProt Q8NG66)
T6 construct: T7 phage fusion (said for most assays); made in house

NEK5 = target: T7, NEK5 (Homo sapiens, UniProt Q6P3R8)
T7 construct: T7 phage fusion (said for most assays); made in house

NIM1 = target: T8, NIM1 (Homo sapiens, UniProt Q8IY84)
T8 construct: T7 phage fusion (said for most assays); made in house

PAK3 = PAK3 (Homo sapiens, UniProt O75914)
PRKG1 = PRKG1 (Homo sapiens, UniProt Q13976)
PRKR = PRKR (Homo sapiens, UniProt P19525)
[6] = target: RPS6KA4 (Kin.Dom.1-N-terminal) (Homo sapiens, UniProt O75676)
SRMS = SRMS (Homo sapiens, UniProt Q9H3Y6)
SRPK2 = SRPK2 (Homo sapiens, UniProt P78362)
TBK1 = TBK1 (Homo sapiens, UniProt Q9UHD2)
TNK2 = TNK2 (Homo sapiens, UniProt Q07912)
TYRO3 = TYRO3 (Homo sapiens, UniProt Q06418)

Chain of ERN1 (O75460 19-977): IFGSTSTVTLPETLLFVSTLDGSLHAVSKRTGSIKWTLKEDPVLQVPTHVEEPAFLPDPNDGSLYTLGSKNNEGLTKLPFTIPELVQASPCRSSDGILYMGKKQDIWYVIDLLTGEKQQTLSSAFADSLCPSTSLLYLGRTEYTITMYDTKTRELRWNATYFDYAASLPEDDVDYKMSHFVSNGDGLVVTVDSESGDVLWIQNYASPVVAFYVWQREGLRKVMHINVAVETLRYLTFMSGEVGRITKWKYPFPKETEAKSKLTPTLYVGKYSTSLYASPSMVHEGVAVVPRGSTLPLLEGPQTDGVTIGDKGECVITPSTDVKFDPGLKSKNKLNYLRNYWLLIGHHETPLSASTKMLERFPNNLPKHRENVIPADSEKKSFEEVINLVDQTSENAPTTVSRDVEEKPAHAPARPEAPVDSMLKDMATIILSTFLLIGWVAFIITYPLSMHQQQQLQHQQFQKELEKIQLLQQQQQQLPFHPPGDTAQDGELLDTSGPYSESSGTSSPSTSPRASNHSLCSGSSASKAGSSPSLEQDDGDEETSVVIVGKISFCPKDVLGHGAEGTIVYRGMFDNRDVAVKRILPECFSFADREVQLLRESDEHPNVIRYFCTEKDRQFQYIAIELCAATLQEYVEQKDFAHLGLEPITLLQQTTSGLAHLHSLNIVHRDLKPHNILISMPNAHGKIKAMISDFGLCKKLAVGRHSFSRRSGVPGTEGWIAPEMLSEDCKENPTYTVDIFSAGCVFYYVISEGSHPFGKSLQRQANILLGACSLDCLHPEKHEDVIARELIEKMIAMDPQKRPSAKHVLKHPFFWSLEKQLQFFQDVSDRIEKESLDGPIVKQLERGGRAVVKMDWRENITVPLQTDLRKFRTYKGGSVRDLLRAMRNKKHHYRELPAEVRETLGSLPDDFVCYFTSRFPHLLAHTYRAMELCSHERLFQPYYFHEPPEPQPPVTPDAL
Chain of RPS6KA4 (Kin.Dom.1-N-terminal) (O75676 33-301 limits assumed): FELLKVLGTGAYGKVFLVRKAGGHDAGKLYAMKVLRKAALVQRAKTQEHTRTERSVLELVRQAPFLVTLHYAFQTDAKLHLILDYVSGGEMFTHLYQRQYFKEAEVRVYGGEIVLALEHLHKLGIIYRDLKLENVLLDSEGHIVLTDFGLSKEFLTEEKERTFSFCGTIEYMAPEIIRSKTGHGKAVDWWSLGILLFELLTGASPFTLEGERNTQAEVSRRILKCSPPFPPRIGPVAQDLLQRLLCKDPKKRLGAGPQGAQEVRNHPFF
Chain of JAK3 (JH1domain-catalytic) (P52333 822-1111 limits assumed): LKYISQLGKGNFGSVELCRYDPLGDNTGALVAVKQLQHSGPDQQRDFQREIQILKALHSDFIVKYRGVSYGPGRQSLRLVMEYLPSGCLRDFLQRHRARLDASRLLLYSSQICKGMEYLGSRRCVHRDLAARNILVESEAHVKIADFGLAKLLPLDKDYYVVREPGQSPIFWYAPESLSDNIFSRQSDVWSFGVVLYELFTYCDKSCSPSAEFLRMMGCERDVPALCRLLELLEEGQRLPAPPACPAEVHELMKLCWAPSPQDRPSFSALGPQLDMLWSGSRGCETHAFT
Chain of CDK4 (P11802 whole entry): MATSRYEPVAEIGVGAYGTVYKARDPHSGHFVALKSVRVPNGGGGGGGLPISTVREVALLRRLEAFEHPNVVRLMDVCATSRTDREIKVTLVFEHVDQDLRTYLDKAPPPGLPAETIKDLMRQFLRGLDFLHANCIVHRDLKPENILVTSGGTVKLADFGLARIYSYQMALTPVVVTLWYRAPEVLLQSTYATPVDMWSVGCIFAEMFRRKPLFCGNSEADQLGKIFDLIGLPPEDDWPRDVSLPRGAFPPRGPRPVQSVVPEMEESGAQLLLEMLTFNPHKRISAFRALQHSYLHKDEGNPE
T2 sequence (P52564 whole entry, the tested form may be a part): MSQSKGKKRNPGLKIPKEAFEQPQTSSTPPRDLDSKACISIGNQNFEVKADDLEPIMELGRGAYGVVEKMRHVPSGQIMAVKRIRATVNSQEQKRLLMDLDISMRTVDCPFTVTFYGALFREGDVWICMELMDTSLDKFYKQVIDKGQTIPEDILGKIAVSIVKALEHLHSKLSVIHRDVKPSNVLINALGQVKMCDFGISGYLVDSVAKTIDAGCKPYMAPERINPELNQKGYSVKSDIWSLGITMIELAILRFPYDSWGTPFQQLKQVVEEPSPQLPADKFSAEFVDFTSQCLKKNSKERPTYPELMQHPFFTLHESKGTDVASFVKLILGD
Chain of ASK1 (Q99683 whole entry): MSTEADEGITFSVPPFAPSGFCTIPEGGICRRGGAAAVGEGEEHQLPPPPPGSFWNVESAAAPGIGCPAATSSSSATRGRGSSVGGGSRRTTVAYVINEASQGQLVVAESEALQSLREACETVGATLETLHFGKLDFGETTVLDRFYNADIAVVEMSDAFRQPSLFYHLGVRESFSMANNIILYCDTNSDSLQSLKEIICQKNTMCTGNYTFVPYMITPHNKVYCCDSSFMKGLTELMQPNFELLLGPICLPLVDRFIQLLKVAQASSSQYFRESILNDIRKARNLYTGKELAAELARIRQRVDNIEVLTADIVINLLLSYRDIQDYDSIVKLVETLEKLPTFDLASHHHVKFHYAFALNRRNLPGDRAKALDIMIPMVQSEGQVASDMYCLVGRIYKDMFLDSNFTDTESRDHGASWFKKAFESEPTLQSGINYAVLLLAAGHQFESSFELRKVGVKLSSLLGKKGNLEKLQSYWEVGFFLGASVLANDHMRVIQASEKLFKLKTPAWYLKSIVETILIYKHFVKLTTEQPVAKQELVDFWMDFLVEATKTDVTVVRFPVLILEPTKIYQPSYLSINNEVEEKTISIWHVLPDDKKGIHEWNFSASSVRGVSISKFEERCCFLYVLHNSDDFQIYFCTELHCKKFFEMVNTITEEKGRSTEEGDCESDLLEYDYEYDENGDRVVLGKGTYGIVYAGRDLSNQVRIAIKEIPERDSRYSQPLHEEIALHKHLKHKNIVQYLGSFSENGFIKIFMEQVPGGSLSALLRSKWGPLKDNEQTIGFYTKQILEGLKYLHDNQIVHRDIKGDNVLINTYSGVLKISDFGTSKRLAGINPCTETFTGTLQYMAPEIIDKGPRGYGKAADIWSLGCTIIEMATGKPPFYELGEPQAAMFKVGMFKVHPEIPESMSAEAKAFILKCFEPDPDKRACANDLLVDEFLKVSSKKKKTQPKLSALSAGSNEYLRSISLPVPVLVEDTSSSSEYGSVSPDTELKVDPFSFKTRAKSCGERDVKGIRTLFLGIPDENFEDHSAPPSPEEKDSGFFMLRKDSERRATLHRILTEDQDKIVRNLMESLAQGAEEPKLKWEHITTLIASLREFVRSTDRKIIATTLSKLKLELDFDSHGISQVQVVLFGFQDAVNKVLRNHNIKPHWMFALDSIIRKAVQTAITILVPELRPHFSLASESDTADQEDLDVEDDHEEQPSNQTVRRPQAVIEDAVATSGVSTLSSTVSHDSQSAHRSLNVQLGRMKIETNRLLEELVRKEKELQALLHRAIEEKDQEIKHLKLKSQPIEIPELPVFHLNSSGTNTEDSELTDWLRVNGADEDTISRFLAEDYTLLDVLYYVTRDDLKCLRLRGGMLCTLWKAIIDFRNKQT
T4 sequence (P08581 25-1390 Y1235D): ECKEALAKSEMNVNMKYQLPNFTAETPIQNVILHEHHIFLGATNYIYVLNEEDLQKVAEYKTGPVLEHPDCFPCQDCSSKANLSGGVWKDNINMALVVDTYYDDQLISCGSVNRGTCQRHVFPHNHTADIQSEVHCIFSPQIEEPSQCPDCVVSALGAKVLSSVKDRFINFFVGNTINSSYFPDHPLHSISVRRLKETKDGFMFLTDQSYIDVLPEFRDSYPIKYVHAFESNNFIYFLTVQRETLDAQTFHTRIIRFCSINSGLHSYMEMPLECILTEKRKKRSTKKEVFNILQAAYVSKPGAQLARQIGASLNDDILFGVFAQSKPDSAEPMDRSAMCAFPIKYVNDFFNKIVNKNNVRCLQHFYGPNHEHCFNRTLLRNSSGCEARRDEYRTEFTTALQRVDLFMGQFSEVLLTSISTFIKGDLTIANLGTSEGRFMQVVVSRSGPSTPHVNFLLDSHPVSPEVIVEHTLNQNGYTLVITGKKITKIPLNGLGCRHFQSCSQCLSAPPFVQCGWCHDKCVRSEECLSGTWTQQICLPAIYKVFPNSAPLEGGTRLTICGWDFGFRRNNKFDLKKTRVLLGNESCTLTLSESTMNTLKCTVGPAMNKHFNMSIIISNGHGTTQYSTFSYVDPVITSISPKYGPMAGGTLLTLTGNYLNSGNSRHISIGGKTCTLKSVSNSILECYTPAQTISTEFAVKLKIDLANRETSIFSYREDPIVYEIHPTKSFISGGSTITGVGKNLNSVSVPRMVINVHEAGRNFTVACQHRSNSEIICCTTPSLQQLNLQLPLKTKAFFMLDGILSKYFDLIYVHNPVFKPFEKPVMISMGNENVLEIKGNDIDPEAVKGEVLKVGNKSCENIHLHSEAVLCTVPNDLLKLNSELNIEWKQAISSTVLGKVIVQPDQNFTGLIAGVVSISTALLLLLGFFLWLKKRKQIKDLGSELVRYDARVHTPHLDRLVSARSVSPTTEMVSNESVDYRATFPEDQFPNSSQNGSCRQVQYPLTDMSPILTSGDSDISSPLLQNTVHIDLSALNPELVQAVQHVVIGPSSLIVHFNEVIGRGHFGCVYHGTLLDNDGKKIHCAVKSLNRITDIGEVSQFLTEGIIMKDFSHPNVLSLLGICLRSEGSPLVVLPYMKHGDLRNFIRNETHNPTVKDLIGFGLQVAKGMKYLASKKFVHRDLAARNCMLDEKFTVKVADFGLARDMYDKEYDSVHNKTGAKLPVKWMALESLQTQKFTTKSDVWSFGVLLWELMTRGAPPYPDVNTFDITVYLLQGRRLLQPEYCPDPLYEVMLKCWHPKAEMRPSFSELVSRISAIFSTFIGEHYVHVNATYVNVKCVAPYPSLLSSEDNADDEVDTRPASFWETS

Cc1cc(Oc2cc(NC(=O)C3CC3)ncn2)ccc1NC(=O)Nc1ccc(Cl)c(C(F)(F)F)c1 [CBT-102]
remaining activity at 1 µM [1]: 92% | remaining activity at 1 µM [2]: 20% | remaining activity at 1 µM [3]: 83% | remaining activity at 1 µM (ASK1): 91% | remaining activity at 1 µM (BMPR1B): 99% | remaining activity at 1 µM (CDK2): 69% | remaining activity at 1 µM (CDK4): 100% | remaining activity at 1 µM (CDKL3): 4.3% | remaining activity at 1 µM (DYRK1B): 100% | remaining activity at 1 µM (EPHA5): 52% | remaining activity at 1 µM (EPHB2): 44% | remaining activity at 1 µM (ERK3): 100% | remaining activity at 1 µM (ERN1): 78% | remaining activity at 1 µM (FLT3 (D835Y)): 61% | remaining activity at 1 µM (FLT3 (R834Q)): 97% | remaining activity at 1 µM (GRK4): 100% | remaining activity at 1 µM [4]: 78% | remaining activity at 1 µM [5]: 82% | remaining activity at 1 µM (JNK3): 85% | remaining activity at 1 µM (LRRK2 (G2019S)): 38% | remaining activity at 1 µM (LTK): 100% | remaining activity at 1 µM (MAK): 62% | remaining activity at 1 µM (MAST1): 86% | remaining activity at 1 µM (MEK6): 96% | remaining activity at 1 µM (MELK): 84% | remaining activity at 1 µM (MET (Y1235D)): 79% | remaining activity at 1 µM (MST1R): 89% | remaining activity at 1 µM (NEK11): 100% | remaining activity at 1 µM (NEK5): 96% | remaining activity at 1 µM (NIM1): 82% | remaining activity at 1 µM (PAK3): 100% | remaining activity at 1 µM (PRKG1): 100% | remaining activity at 1 µM (PRKR): 92% | remaining activity at 1 µM [6]: 100% | remaining activity at 1 µM (SRMS): 99% | remaining activity at 1 µM (SRPK2): 100% | remaining activity at 1 µM (TBK1): 98% | remaining activity at 1 µM (TNK2): 93% | remaining activity at 1 µM (TYRO3): 82%
